System: Adult cane toads (Rhinella marina)
Assay: Cane toad spray trial (formulation sprayed on ventral and/or dorsal surface)
Assay type: in vivo
Conditions: for Mortality Rate / Avg. Time Until Breathing & Heart Beat Not Detected / Avg. Time to Unresponsive: 48 hrs trial
Description: Adult cane toads (Rhinella marina) (>[…] SUL=snout-urostyle length) were collected around Townsville one or two nights prior to the trials. The toads were kept in two Nally bins with all males in one, and all females in the other for ease of sorting. […]
• 1. The compound and carrier controls were prepared on day of testing. • 2. Toads were weighed, measured and placed in individual buckets and left for 10 minutes to settle. • 3. 1.5 ml of the formulation or carrier or water was delivered to the ventral and/or dorsal surface of each toad via a spray bottle (2×1 ml sprays and accounting for approximately 0.5 ml loss during spraying). • 4. Measurements of toad behaviour and heart rate were recorded at T=5, 10, 15, 20, 25, 30, 45, 60, 75, 90, 105, 120 minutes, plus 4-6 hours, 10-12 hours, 16-18 hours and 24 hours after spraying. If toads were still unconscious but not dead (if there was a heartbeat) within 24 hours, they were checked again at 48 hours. The following measurements were taken at each time interval: • Consciousness: Righting reflex was tested by flipping toads onto their backs and their ability to right themselves was recorded as “fast,” “slow,” or “unresponsive”. Observations were made of the palpebral reflex and involuntary muscular movement: Palpebral reflex was tested by gently tapping the palpebral area with the finger and observing eyelid movement. Involuntary muscular movement was tested via the withdrawal reflex, by grasping each limb distally and extending it. • Breathing/heart rate (did the toad appear to be breathing or was there a detectable heart beat); • Side effects (any other noticeable effects of the formulation such as twitching, distress or agitation, poison gland discharge, muscle rigidness, gasping, or ventral redness).
Even when no vital signs are detected externally during the experimental process, previous studies have shown that toads may appear dead and still have a heartbeat. At the completion of the trials, all animals were anaesthetised with a lethal dose MS222 (tricaine mesylate) then dissected to determine if the heart was still beating and to look for any signs of internal necrosis.

[1] = carrier ethanol, 84.2 g/L, 2 sprays ventral + dorsal, 6 toads
[2] = carrier ethanol, 168.36 g/L, 2 sprays ventral + dorsal, 6 toads
[3] = carrier isopropanol, 84.2 g/L, 2 sprays ventral + dorsal, 6 toads
[4] = carrier isopropanol, 126.3 g/L, 2 sprays dorsal, 6 toads
[5] = carrier isopropanol, 126.3 g/L, 2 sprays dorsal, 24 toads (repeat trial)
[6] = carrier isopropanol, 140 g/L, 2 sprays dorsal, 22 toads
[7] = carrier isopropanol, 168.36 g/L, 2 sprays ventral + dorsal, 6 toads

OCCOc1ccccc1 [2-Phenoxyethanol]
Mortality Rate (carrier ethanol, 21.05 g/L, 2 sprays ventral + dorsal, 6 toads): 0%
Avg. Time Until Breathing & Heart Beat Not Detected [1]: 405 min
Avg. Time to Unresponsive [1]: 15 min
Mortality Rate [1]: 100%
Avg. Time Until Breathing & Heart Beat Not Detected [2]: 20 min
Avg. Time to Unresponsive [2]: 13.33 min
Mortality Rate [2]: 100%
Avg. Time Until Breathing & Heart Beat Not Detected [3]: 40.83 min
Avg. Time to Unresponsive [3]: 16.67 min
Mortality Rate [3]: 100%
Avg. Time Until Breathing & Heart Beat Not Detected [4]: 23 min
Avg. Time to Unresponsive [4]: 18.3 min
Mortality Rate [4]: 100%
Avg. Time Until Breathing & Heart Beat Not Detected [5]: 24.25 min
Avg. Time to Unresponsive [5]: 18 min
Mortality Rate [5]: 95.8%
Avg. Time Until Breathing & Heart Beat Not Detected [6]: 22.05 min
Avg. Time to Unresponsive [6]: 17.95 min
Mortality Rate [6]: 100%
Avg. Time Until Breathing & Heart Beat Not Detected [7]: 14.17 min
Avg. Time to Unresponsive [7]: 11.67 min
Mortality Rate [7]: 100%
Avg. Time to Unresponsive (carrier propylene glycol, 168.36 g/L, 2 sprays ventral + dorsal, 6 toads): 15.83 min
Avg. Time to Unresponsive (carrier water, 168.36 g/L, 2 sprays ventral + dorsal, 6 toads): 14.166 min
effectiveness among potential toxicants tested (in different carriers) (compared with benzocaine, sodium nitrite, tricaine mesylate, sodium monesnsin): only real effective candidate
effectiveness as toad control (concentration greater than 40 g/L in a carrier of either ethanol or isopropanol): effective control
effectiveness as toad control (formulations with water as a carrier): not effective

Reference: patent US12342818B2, “Formulations and methods for controlling invasive amphibians” (priority 2019, dated 2025)
